Assay [1] in a line: Evaluation of sweetness level: choosing the sugar-added sample of equivalent sweetness intensity. The format is in vivo. The protocol: In order to evaluate the sweetness levels of Novel steviol glycosides A and B, samples were prepared by adding sugar to pure water to give Brix of 3.0 to 5.0 in 0.5 increments. Compounds 15 and 17 obtained by the chemical syntheses were used as Novel steviol glycosides A and B, respectively, where 48 mg of each sample was dissolved in 400 mL of pure water to be tested. In addition, samples were also prepared for comparison by dissolving 48 mg of each of Reb.A, Reb.D and Reb.M in 400 mL of pure water.

Assay [2] can be described thus: Sensory evaluation of taste quality of beverage samples (sweetness on-set, lingering sweet aftertaste, bitterness, lingering bitter aftertaste). The format is in vivo.
Description: In order to evaluate the taste quality of various steviol glycosides, Reb.A, Reb.D, Reb.M, sugar and Novel steviol glycoside A (Compound 15) were each added to pure water to prepare beverage samples. All of the beverage samples were adjusted to have final sweetness level (Brix) of 5 in terms of sugar (sucrose), and thus the sweetness levels of Reb.A, Reb.D, Reb.M and Novel steviol glycoside A (Compound 15) were 312, 317, 341 and 354, respectively.
(§1) The resulting beverage samples were subjected to sensory evaluation for rating the attributes, which were sweetness on-set, lingering sweet aftertaste, bitterness and lingering bitter aftertaste. Panelists who had been trained about sensory attributes of sweeteners (7 members) evaluated based on the following evaluation criteria. For each evaluation item, the steviol glycosides were scored in 0.5 increments provided that the score of sugar was 3. […]
as §1

[3] abbreviates: evaluation with Novel steviol glycoside A (Compound 15), restated averages of Table 2.
[4] abbreviates: evaluation with Novel steviol glycoside B (Compound 17), restated averages of Table 3.

The structures appear in SMILES notation.

Take `C=C1CC23CCC4C(C)(C(=O)OC5OC(CO)C(O)C(O)C5OC5OCC(O)C(O)C5O)CCCC4(C)C2CCC1(OC1OC(CO)C(O)C(OC2OC(CO)C(O)C(O)C2O)C1OC1OC(CO)C(O)C(O)C1O)C3` (stereo not shown) [Novel steviol glycoside A]: the “sweetness level, times higher in average than that of sugar” value in assay [1] (average of panelists, 48 mg in 400 mL pure water) is listed as “about 354 times”. In assay [1] (setting [3]), the “sweetness levels taken for adjusting the beverage samples to Brix 5 in terms of sugar” value (from here on “sweetness levels taken”) was found to be 354. Further, the “sweetness (sensory evaluation, in words)” value in assay [2] (beverage samples in pure water, Brix 5 in terms of sugar, vs Reb.A, Reb.D, Reb.M, FIG. 14) is given as “less sweetness”. Also, the “lingering sweet and bitter aftertastes” value in assay [2] (general statement in the description) was “less lingering sweet and bitter aftertastes”.
As to `C=C1C[C@@]23CC[C@H]4[C@@](C)(CCC[C@@]4(C)C(=O)O[C@@H]4O[C@H](CO)[C@@H](O)[C@H](O)[C@H]4O)[C@@H]2CC[C@]1(O[C@@H]1O[C@H](CO)[C@@H](O)[C@H](O[C@@H]2O[C@H](CO)[C@@H](O)[C@H](O)[C@H]2O)[C@H]1O[C@@H]1O[C@H](CO)[C@@H](O)[C@H](O)[C@H]1O)C3` [Reb A, rebaudioside A], the entries for the “sweetness levels taken” value in assay [1] (setting [3]) and in assay [1] (setting [4]) were 312 and 288, respectively.
Consider `C=C1C[C@@]23CC[C@H]4[C@@](C)(CCC[C@@]4(C)C(=O)O[C@@H]4O[C@H](CO)[C@@H](O)[C@H](O)[C@H]4O[C@@H]4O[C@H](CO)[C@@H](O)[C@H](O)[C@H]4O)[C@@H]2CC[C@]1(O[C@@H]1O[C@H](CO)[C@@H](O)[C@H](O[C@@H]2O[C@H](CO)[C@@H](O)[C@H](O)[C@H]2O)[C@H]1O[C@@H]1O[C@H](CO)[C@@H](O)[C@H](O)[C@H]1O)C3` [Reb D, rebaudioside D], for which the “sweetness levels taken” value in assay [1] (setting [3]) is 317; in assay [1] (setting [4]), 310.
For the molecule `C=C1C[C@@]23CC[C@H]4[C@@](C)(CCC[C@@]4(C)C(=O)O[C@@H]4O[C@H](CO)[C@@H](O)[C@H](O[C@@H]5O[C@H](CO)[C@@H](O)[C@H](O)[C@H]5O)[C@H]4O[C@@H]4O[C@H](CO)[C@@H](O)[C@H](O)[C@H]4O)[C@@H]2CC[C@]1(O[C@@H]1O[C@H](CO)[C@@H](O)[C@H](O[C@@H]2O[C@H](CO)[C@@H](O)[C@H](O)[C@H]2O)[C@H]1O[C@@H]1O[C@H](CO)[C@@H](O)[C@H](O)[C@H]1O)C3` [Reb M, rebaudioside M], the “sweetness levels taken” value was 341 in assay [1] (setting [3]) and 324 in assay [1] (setting [4]).

Values taken from US20220256902A1, “NOVEL STEVIOL GLYCOSIDE, METHOD FOR PRODUCING SAME, AND SWEETENER COMPOSITION CONTAINING SAME” (SUNTORY HOLDINGS LIMITED, priority 2019, published 2022).
